# In ChEMBL document CHEMBL3301555, “MMV Malaria Box screening in pLDH viability assay against Plasmodium falciparum gametocytes”:
# System: Plasmodium falciparum
# Experiment: MMV: Measure of pLDH activity as indication of parasite viability. Gametocytogenesis of 3D7 Plasmodium falciparum strain was induced in vitro and asexual parasites were depleted with N-acetylglucosamine. Gametocytes were treated with dihydroartemisinin, epoxomicin, methylene blue, primaquine, puromycin or chloroquine in 96-well plates and the pLDH activity was evaluated using a modified Makler protocol. Mosquito infectivity was measured by the standard membrane feeding assay.
# Type: functional
# Design: concentration or dose not given beside the values
row,SMILES,Growth Inhibition [%]
1,COc1cccc(Cn2c(Oc3ccccc3)nc3c2c(=O)n(C)c(=O)n3C)c1,5.4442
2,CCOc1ccccc1CN1CCc2nc3cc(C(C)(C)C)nn3c(O)c2C1,8.4768
3,Cc1cc(N2CCCC2)nc(Nc2ccc(NC(=O)CCc3ccccc3)cc2)n1,14.278
4,CN1CCN(c2ncnc3c2[nH]c2ccc(Cl)cc23)CC1,7.405
5,O=C1c2ccccc2-c2nnc(-c3ccc(Br)cc3)cc21,29.9528
6,CN(C)CCNc1cc(-c2ccccc2)nc2ccccc12,2.7026
7,CCOC(=O)C1=C(C)N=c2sc(=Cc3cc(Cl)ccc3O)c(=O)n2C1c1ccc(OC)cc1 (configuration not stated),18.9955
8,Cc1nc2ccccc2c(O)c1CC=C(Cl)Cl,28.4855
9,COc1ccc2nc(C)cc(Nc3cccc(O)c3)c2c1.Cl,10.892
10,O=c1nc(C=Cc2ccc(Br)cc2)oc2ccccc12,11.7922
11,COc1ccc2nc(N)nc(C)c2c1,7.6614
12,CC(=O)c1ccc(NC(=O)CSc2nc(-c3ccccc3Cl)ns2)cc1,4.3696
13,CCC(=O)Nc1nnc(Cc2ccc(OC)c(OC)c2)s1,9.8854
14,Cc1ccc(OCCCCCCNCCO)c(C)c1,3.067
15,COc1cccc(C(=O)Nc2ccc(-c3nc4ccccc4[nH]3)cc2)c1,15.5734
16,CCOC(=O)c1cnc2ccc(Cl)cc2c1NCCCN(C)C,5.776
17,CCOc1ccccc1NC(=O)CN1CCN(C(=O)c2ccco2)CC1,5.6622
18,O=C1c2ccccc2C2=Nc3ccccc3SC(c3cccc(F)c3)C12 (configuration not stated),29.827
19,Cc1ccccc1OCCSc1nc2ccc(NC(=O)c3ccccc3)cc2s1,-3.751
20,CC(C)(C)c1ccc(C(=O)Nc2c3c(nn2-c2cccc(Cl)c2)CSC3)cc1,9.0986
21,CCOc1cc2c(cc1OCC)C(c1cc(Cl)c(O)c(OCC)c1)NCC2 (configuration not stated),16.0386

row,SMILES,Growth Inhibition [%]
1,COc1ccc(N2CCN(C(CNC(=O)CC(C)(C)C)c3ccc4c(c3)OCO4)CC2)cc1 (configuration not stated),14.9208
2,CCCCCCn1c(=N)n(CC(O)COc2cccc(C)c2)c2ccccc21.Cl (configuration not stated),34.1668
3,O=C(O)C(=O)O.Oc1ccc(Br)cc1CN1CCN(Cc2cccc(F)c2)CC1,29.456
4,CCOC(=O)C1(Cc2ccccc2)CCN(Cc2cccc(OC)c2O)CC1,37.59
5,Oc1ccc(C(=C(Cl)Cl)c2ccc(O)cc2)cc1,9.2564
6,CC(C)(C)c1ccc2c(c1)CN(Cc1ccc(Cl)cc1)CO2,36.3995
7,CN(C)c1ccc(N2C(N)=NC(N)=NC2(C)C)cc1,5.041
8,COc1ccc(OC)c(C2C3=C(CC(C)(C)CC3=O)N(c3ccc(Cl)c(Cl)c3)C3=C2C(=O)CC(C)(C)C3)c1,21.894
9,COc1ccc(CN2CCN(Cc3ccccc3)CC2)c(O)c1,26.2585
10,Cl.OC(CNCc1ccccc1)Cn1c2ccccc2c2ccccc21 (configuration not stated),33.103
11,OC1CCCCC1C1(NC(=S)Nc2ccccc2)CCCCC1 (configuration not stated),-6.2185
12,OC1=C2C(=Nc3ccccc3SC2c2ccc(Br)cc2)c2ccccc21 (configuration not stated),30.3526
13,COc1ccc(C)c2sc(N(Cc3cccnc3)C(=O)c3ccc(C#N)cc3)nc12,-12.2204
14,Clc1ccc2c(N3CCCC3)ccnc2c1,18.4524
15,COc1ccc(C(=O)C2CC2c2ccc(Cl)cc2)cc1 (configuration not stated),8.002
16,CCCCCn1c(=N)n(CC(O)COc2cccc(C)c2)c2ccccc21.Cl (configuration not stated),34.3056
17,O=c1c2c([nH]c3ccccc13)CCCC2,19.1396
18,CCN1CCN(c2c(C(=O)c3ccccc3)cnc3cc(OC)c(OC)cc23)CC1,-1.335
19,Cc1c(C)n(CC(O)CNC2CCCCC2C)c2ccccc12 (configuration not stated),42.7668
20,Cc1ccc(S(=O)(=O)c2c(COC(=O)c3cccc(C)c3)c(-c3ccccc3)nn2C)cc1,4.058
21,CCCCN(CCCC)S(=O)(=O)c1ccc(NC(=O)c2ccco2)cc1,9.666
